Assay results as given in ChEMBL document CHEMBL5346892, “Design and synthesis of benzochromene derivatives as AcrB inhibitors for the reversal of bacterial multidrug resistance” (Eur J Med Chem, 2023).
Calls of active or inactive are those of the source. The calls are words filed in the database; no cut-off is given here.

What was measured:
Escherichia coli [1] = assay: Synergistic antibacterial activity against wild type Escherichia coli BW25113 assessed as erythromycin MIC at 128 microg/ml incubated for 18 hrs by broth dilution assay; format: functional; details: dose 128 µg/ml
Escherichia coli [2] = assay: Synergistic antibacterial activity against wild type Escherichia coli BW25113 assessed as minocycline MIC at 16 microg/ml incubated for 18 hrs by broth dilution assay; format: functional; details: dose 16 µg/ml
Escherichia coli [3] = assay: Synergistic antibacterial activity against wild type Escherichia coli BW25113 assessed as minocycline MIC at 64 microg/ml incubated for 18 hrs by broth dilution assay; format: functional; details: dose 64 µg/ml
Escherichia coli [4] = assay: Synergistic antibacterial activity against wild type Escherichia coli BW25113 assessed as erythromycin MIC at 4 microg/ml incubated for 18 hrs in presence of colistin by broth dilution assay; format: functional; details: dose 4 µg/ml
Escherichia coli [5] = assay: Synergistic antibacterial activity against wild type Escherichia coli BW25113 assessed as levofloxacin MIC at 4 microg/ml incubated for 18 hrs in presence of colistin by broth dilution assay; format: functional; details: dose 4 µg/ml
Escherichia coli [6] = assay: Synergistic antibacterial activity against wild type Escherichia coli BW25113 assessed as minocycline MIC at 4 microg/ml incubated for 18 hrs in presence of colistin by broth dilution assay; format: functional; details: dose 4 µg/ml
[7] = target: T1, Multidrug efflux pump subunit AcrB (Escherichia coli (strain K12)) (UniProt P31224); assay: Inhibition of Escherichia coli BW25113 AcrB assessed as inhibition of nile red efflux at 100 uM incubated for 15 mins
T1 sequence (whole entry): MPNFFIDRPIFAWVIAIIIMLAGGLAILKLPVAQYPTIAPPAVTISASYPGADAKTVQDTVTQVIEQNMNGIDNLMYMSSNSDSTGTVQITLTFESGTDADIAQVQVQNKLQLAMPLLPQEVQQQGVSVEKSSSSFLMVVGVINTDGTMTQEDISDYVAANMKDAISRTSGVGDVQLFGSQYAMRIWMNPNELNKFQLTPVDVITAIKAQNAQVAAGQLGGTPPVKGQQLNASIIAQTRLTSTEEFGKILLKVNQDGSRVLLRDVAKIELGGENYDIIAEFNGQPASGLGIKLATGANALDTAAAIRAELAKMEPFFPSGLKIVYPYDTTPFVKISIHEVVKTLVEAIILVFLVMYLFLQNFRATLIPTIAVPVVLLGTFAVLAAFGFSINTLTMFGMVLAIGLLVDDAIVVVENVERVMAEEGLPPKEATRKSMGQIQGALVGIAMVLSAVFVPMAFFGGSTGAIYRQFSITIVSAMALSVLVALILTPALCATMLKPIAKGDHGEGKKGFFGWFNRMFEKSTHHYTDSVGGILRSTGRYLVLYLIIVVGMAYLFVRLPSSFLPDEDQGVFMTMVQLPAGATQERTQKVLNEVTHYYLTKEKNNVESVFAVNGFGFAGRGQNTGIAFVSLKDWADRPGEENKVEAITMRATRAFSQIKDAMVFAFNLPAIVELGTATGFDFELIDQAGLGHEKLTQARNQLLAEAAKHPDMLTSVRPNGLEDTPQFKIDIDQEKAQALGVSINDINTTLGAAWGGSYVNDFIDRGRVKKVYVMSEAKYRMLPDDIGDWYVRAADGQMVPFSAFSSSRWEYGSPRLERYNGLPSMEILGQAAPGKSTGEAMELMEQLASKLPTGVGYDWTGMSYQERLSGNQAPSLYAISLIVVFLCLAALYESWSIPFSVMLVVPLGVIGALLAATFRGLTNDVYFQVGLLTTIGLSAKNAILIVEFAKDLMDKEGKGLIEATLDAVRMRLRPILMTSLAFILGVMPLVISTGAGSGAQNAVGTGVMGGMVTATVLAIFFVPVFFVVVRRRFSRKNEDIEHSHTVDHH

[8] = target: T1, Multidrug efflux pump subunit AcrB (Escherichia coli (strain K12)); assay: Inhibition of Escherichia coli BW25113 AcrB assessed as inhibition of nile red efflux at 200 uM incubated for 15 mins
Escherichia coli [9] = assay: Synergistic antibacterial activity against wild type Escherichia coli BW25113 assessed as erythromycin MIC at 0.5 microg/ml incubated for 18 hrs in presence of colistin by broth dilution assay; format: functional; details: dose 0.5 µg/ml
Escherichia coli [10] = assay: Synergistic antibacterial activity against wild type Escherichia coli BW25113 assessed as erythromycin MIC at 2 microg/ml incubated for 18 hrs in presence of colistin by broth dilution assay; format: functional; details: dose 2 µg/ml
Escherichia coli [11] = assay: Synergistic antibacterial activity against wild type Escherichia coli BW25113 assessed as levofloxacin MIC at 0.5 microg/ml incubated for 18 hrs in presence of colistin by broth dilution assay; format: functional; details: dose 0.5 µg/ml
Escherichia coli [12] = assay: Synergistic antibacterial activity against wild type Escherichia coli BW25113 assessed as levofloxacin MIC at 1 microg/ml incubated for 18 hrs in presence of colistin by broth dilution assay; format: functional; details: dose 1 µg/ml
Escherichia coli [13] = assay: Synergistic antibacterial activity against wild type Escherichia coli BW25113 assessed as levofloxacin MIC at 2 microg/ml incubated for 18 hrs in presence of colistin by broth dilution assay; format: functional; details: dose 2 µg/ml
Escherichia coli [14] = assay: Synergistic antibacterial activity against wild type Escherichia coli BW25113 assessed as minocycline MIC at 0.5 microg/ml incubated for 18 hrs in presence of colistin by broth dilution assay; format: functional; details: dose 0.5 µg/ml
Escherichia coli [15] = assay: Synergistic antibacterial activity against wild type Escherichia coli BW25113 assessed as fold decrease in erythromycin MIC at 128 microg/ml incubated for 18 hrs by checkboard based microplate reader analysis; format: functional; details: dose 128 µg/ml
Escherichia coli [16] = assay: Synergistic antibacterial activity against wild type Escherichia coli BW25113 assessed as fold decrease in erythromycin MIC at 8 to 128 microg/ml incubated for 18 hrs by checkboard based microplate reader analysis; format: functional; details: dose 8-128 µg/ml
[17] = target: T1, Multidrug efflux pump subunit AcrB (Escherichia coli (strain K12)); assay: Inhibition of Escherichia coli BW25113 AcrB assessed as inhibition of nile red efflux at 50 uM incubated for 15 mins
Escherichia coli [18] = assay: Synergistic antibacterial activity against wild type Escherichia coli BW25113 assessed as fold decrease in erythromycin MIC at 64 microg/ml incubated for 18 hrs by checkboard based microplate reader analysis; format: functional; details: dose 64 µg/ml
Escherichia coli [19] = assay: Synergistic antibacterial activity against wild type Escherichia coli BW25113 assessed as fold decrease in minocycline MIC at 128 microg/ml incubated for 18 hrs by checkboard based microplate reader analysis; format: functional; details: dose 128 µg/ml
Escherichia coli [20] = assay: Synergistic antibacterial activity against wild type Escherichia coli BW25113 assessed as fold decrease in erythromycin MIC at 16 to 64 microg/ml incubated for 18 hrs by checkboard based microplate reader analysis; format: functional; details: dose 16-64 µg/ml
Escherichia coli [21] = assay: Synergistic antibacterial activity against wild type Escherichia coli BW25113 assessed as fold decrease in levofloxacin MIC at 64 microg/ml incubated for 18 hrs by checkboard based microplate reader analysis; format: functional; details: dose 64 µg/ml
Escherichia coli [22] = assay: Synergistic antibacterial activity against wild type Escherichia coli BW25113 assessed as erythromycin MIC at 128 microg/ml incubated for 18 hrs in presence of colistin by broth dilution assay; format: functional; details: dose 128 µg/ml
Escherichia coli [23] = assay: Synergistic antibacterial activity against wild type Escherichia coli BW25113 assessed as levofloxacin MIC at 128 microg/ml incubated for 18 hrs in presence of colistin by broth dilution assay; format: functional; details: dose 128 µg/ml
Escherichia coli [24] = assay: Synergistic antibacterial activity against wild type Escherichia coli BW25113 assessed as fold decrease in minocycline MIC at 64 microg/ml incubated for 18 hrs by checkboard based microplate reader analysis; format: functional; details: dose 64 µg/ml

SMILES	MIC (Escherichia coli [1]) [µg/mL]	MIC (Escherichia coli [2]) [µg/mL]	MIC (Escherichia coli [3]) [µg/mL]	MIC (Escherichia coli [5]) [µg/mL]	MIC (Escherichia coli [6]) [µg/mL]	fold change (FC) (Escherichia coli [15])	inhibition [17]	other results
CC1(C)CCc2c(C(=O)N3CCOCC3)cc3c(OCCSc4ccc([N+](=O)[O-])cc4)cccc3c2O1	16	2	1	0.032	1	–	–	MIC (Escherichia coli [4]): 8 µg/mL; inhibition [7]: 100%; inhibition [8]: 100%
CC1(C)CCc2c(C(=O)N3CCOCC3)cc3c(OCCN4CCN(c5ccccc5)CC4)cccc3c2O1	16	2	2	–	–	4	Active	MIC (Escherichia coli [9]): 16 µg/mL; MIC (Escherichia coli [10]): 8 µg/mL; MIC (Escherichia coli [11]): 0.032 µg/mL; MIC (Escherichia coli [12]): 0.032 µg/mL; MIC (Escherichia coli [13]): 0.032 µg/mL; MIC (Escherichia coli [14]): 1 µg/mL; fold change (FC) (Escherichia coli [16]): 16
CC1(C)CCc2c(C(=O)N3CCOCC3)cc3c(OCCCOc4cccc(C(=O)O)c4)cccc3c2O1	16	2	1	0.032	0.5	–	Active	fold change (FC) (Escherichia coli [18]): 4; fold change (FC) (Escherichia coli [19]): 4; fold change (FC) (Escherichia coli [20]): 4; fold change (FC) (Escherichia coli [21]): 4
COc1ccc(OCCCOc2cccc3c4c(c(C(=O)N5CCOCC5)cc23)CCC(C)(C)O4)cc1	8	2	1	–	–	8	Active	MIC (Escherichia coli [22]): 8 µg/mL; MIC (Escherichia coli [23]): 0.032 µg/mL; fold change (FC) (Escherichia coli [24]): 4
